{
  "source": "PubChem BioAssay (NCI)",
  "note": "Where “and” joins values, the source holds several entries; their conditions need not be identical. Equal entries are not always repeated.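 Following 48 hours of exposure in 96-well plates, responses at five concentrations were used to interpolate endpoints linearly. GI50: concentration for 50% inhibition of growth. TGI is the concentration that stops growth completely.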",
  "data": [
    {"test_system": "TK-10 renal", "experiment": "NCI anticancer screen, dose series, 48 h", "units": {"GI50": "µM"}, "values": [
      {"compound": "COCCOc1cc(F)c2c(Nc3ccc(NC(=O)Cn4cc(C(C)C)nn4)cc3)ncnc2c1", "GI50": "> 100", "TGI": "> 100 µM"},
      {"compound": "C#Cc1cccc(Nc2ncnc3cc(OC)c(OCCCCCCC(=O)NO)cc23)c1", "GI50": 0.185, "TGI": "2.36 µM"},
      {"compound": "Cc1nnc(S(=O)(=O)c2ccc(N=Nc3c(N)nc(N)nc3N)cc2)s1", "TGI": "> 100 µM"},
      {"compound": "O=c1n(CC2CO2)c(=O)n(CC2CO2)c(=O)n1CC1CO1", "note": "(configuration not stated)", "GI50": 21.1, "TGI": "121 µM and > 100 µM"},
      {"compound": "Cc1ccc(C(SCC(N)C(=O)O)(c2ccccc2)c2ccc(C)cc2)cc1", "note": "(configuration not stated)", "GI50": 11.2, "TGI": "30.9 µM"},
      {"compound": "COc1cc(Nc2cn[nH]c2-c2ccc(Cl)cc2)cc(OC)c1OC", "GI50": 9.13, "TGI": "62.9 µM"},
      {"compound": "O=C(c1ccccc1)c1cc(Cl)ccc1OCCCCN1CCN(CCCCOc2ccc(Cl)cc2C(=O)c2ccccc2)CC1", "GI50": 4.26, "TGI": "17 µM"},
      {"compound": "CNCCNc1c2c(c(NCCNC)c3c(CN(C)C)c[nH]c13)C(=O)c1ccccc1C2=O", "GI50": 7.11, "TGI": "15.9 µM"},
      {"compound": "Clc1ccc2c(NCCCNc3nccc(Nc4ccc(Br)cc4)n3)ccnc2c1", "GI50": 1.83, "TGI": "3.26 µM"}
    ]},
    {"test_system": "U251 CNS", "experiment": "NCI anticancer screen, dose series, 48 h", "units": {"GI50": "µM"}, "values": [
      {"compound": "CC(SC(C)C(=O)N/N=C/c1cccc(Cl)c1)C(=O)N/N=C\\c1cccc(Cl)c1", "note": "(configuration not stated)", "GI50": 3.74, "TGI": "15.1 µM"},
      {"compound": "CCOC(=O)/C=C/C(C(=O)/C=C/c1ccc(OC2CCCCO2)c(OC)c1)=C(O)\\C=C\\c1ccc(OC2CCCCO2)c(OC)c1", "note": "(configuration not stated)", "GI50": 3.36, "TGI": "12.6 µM"},
      {"compound": "Cc1ccc(Cl)cc1Nc1nc(C(F)(F)F)ccc1C(=O)N1CCN(c2ccc(F)cc2)CC1", "GI50": 12.5, "TGI": "25.5 µM"},
      {"compound": "O=C(Nc1ccc(OS(=O)(=O)c2ccccc2)cc1)C12CC3CC(CC(C3)C1)C2", "GI50": 4.81, "TGI": "> 100 µM"},
      {"compound": "O=S(=O)([O-])c1ccc2c(c1)-c1nc-2nc2[n-]c(nc3nc(nc4[n-]c(n1)c1ccc(S(=O)(=O)[O-])cc41)-c1cc(S(=O)(=O)[O-])ccc1-3)c1ccc(S(=O)(=O)[O-])cc21.[Cu+2].[Na+]", "GI50": 40.3, "TGI": "> 100 µM"},
      {"compound": "CCN1CCN(c2ccc(Nc3cc(N(C)C(=O)Nc4c(Cl)c(OC)cc(OC)c4Cl)ncn3)cc2)CC1", "GI50": 1.47, "TGI": "3.71 µM"},
      {"compound": "CC(C)c1ccc(Nc2ccc3c(OCCCN4CCN(C)CC4)cccc3n2)cc1", "GI50": 3.28, "TGI": "10.3 µM"},
      {"compound": "COc1ccc(N(C)c2ncnc3occ(C)c23)cc1", "GI50": "< 0.01", "TGI": "11.9 µM"},
      {"compound": "COc1ccc2c(c1)C(C)Cc1c(Cl)ncnc1N2C", "note": "(configuration not stated)", "GI50": 0.478, "TGI": "> 86.4 µM"},
      {"compound": "COCCOc1cc(F)c2c(Nc3ccc(NC(=O)Cn4cc(C(C)C)nn4)cc3)ncnc2c1", "GI50": 37.4, "TGI": "> 100 µM"},
      {"compound": "C#Cc1cccc(Nc2ncnc3cc(OC)c(OCCCCCCC(=O)NO)cc23)c1", "GI50": 0.151, "TGI": "4.07 µM"},
      {"compound": "Cc1nnc(S(=O)(=O)c2ccc(N=Nc3c(N)nc(N)nc3N)cc2)s1", "TGI": "> 100 µM"},
      {"compound": "O=c1n(CC2CO2)c(=O)n(CC2CO2)c(=O)n1CC1CO1", "note": "(configuration not stated)", "GI50": 5.47, "TGI": "32.4 µM and 67.2 µM and 32.2 µM"},
      {"compound": "Cc1ccc(C(SCC(N)C(=O)O)(c2ccccc2)c2ccc(C)cc2)cc1", "note": "(configuration not stated)", "GI50": 0.101, "TGI": "15.5 µM"},
      {"compound": "COc1cc(Nc2cn[nH]c2-c2ccc(Cl)cc2)cc(OC)c1OC", "GI50": 4.91, "TGI": "33.3 µM"},
      {"compound": "O=C(c1ccccc1)c1cc(Cl)ccc1OCCCCN1CCN(CCCCOc2ccc(Cl)cc2C(=O)c2ccccc2)CC1", "GI50": 2.03, "TGI": "4.14 µM"},
      {"compound": "CNCCNc1c2c(c(NCCNC)c3c(CN(C)C)c[nH]c13)C(=O)c1ccccc1C2=O", "GI50": 2.95, "TGI": "13.8 µM"},
      {"compound": "Clc1ccc2c(NCCCNc3nccc(Nc4ccc(Br)cc4)n3)ccnc2c1", "GI50": 1.52, "TGI": "2.94 µM"}
    ]},
    {"test_system": "UO-31 renal", "experiment": "NCI anticancer screen, dose series, 48 h", "values": [
      {"compound": "CC(SC(C)C(=O)N/N=C/c1cccc(Cl)c1)C(=O)N/N=C\\c1cccc(Cl)c1", "note": "(configuration not stated)", "GI50": "14.8 µM", "TGI": "94.4 µM"},
      {"compound": "CCOC(=O)/C=C/C(C(=O)/C=C/c1ccc(OC2CCCCO2)c(OC)c1)=C(O)\\C=C\\c1ccc(OC2CCCCO2)c(OC)c1", "note": "(configuration not stated)", "GI50": "2.63 µM", "TGI": "7.56 µM"},
      {"compound": "Cc1ccc(Cl)cc1Nc1nc(C(F)(F)F)ccc1C(=O)N1CCN(c2ccc(F)cc2)CC1", "GI50": "4.49 µM", "TGI": "22.5 µM"},
      {"compound": "O=C(Nc1ccc(OS(=O)(=O)c2ccccc2)cc1)C12CC3CC(CC(C3)C1)C2", "GI50": "18.7 µM", "TGI": "> 100 µM"},
      {"compound": "O=S(=O)([O-])c1ccc2c(c1)-c1nc-2nc2[n-]c(nc3nc(nc4[n-]c(n1)c1ccc(S(=O)(=O)[O-])cc41)-c1cc(S(=O)(=O)[O-])ccc1-3)c1ccc(S(=O)(=O)[O-])cc21.[Cu+2].[Na+]", "GI50": "> 39.6 µM", "TGI": "> 93.9 µM"},
      {"compound": "CCN1CCN(c2ccc(Nc3cc(N(C)C(=O)Nc4c(Cl)c(OC)cc(OC)c4Cl)ncn3)cc2)CC1", "GI50": "1.35 µM", "TGI": "10 µM"},
      {"compound": "CC(C)c1ccc(Nc2ccc3c(OCCCN4CCN(C)CC4)cccc3n2)cc1", "GI50": "12.9 µM", "TGI": "27.8 µM"},
      {"compound": "COc1ccc(N(C)c2ncnc3occ(C)c23)cc1", "GI50": "< 0.01 µM", "TGI": "> 100 µM"},
      {"compound": "COc1ccc2c(c1)C(C)Cc1c(Cl)ncnc1N2C", "note": "(configuration not stated)", "GI50": "0.364 µM", "TGI": "42 µM"},
      {"compound": "COCCOc1cc(F)c2c(Nc3ccc(NC(=O)Cn4cc(C(C)C)nn4)cc3)ncnc2c1", "GI50": "> 100 µM", "TGI": "> 100 µM"},
      {"compound": "C#Cc1cccc(Nc2ncnc3cc(OC)c(OCCCCCCC(=O)NO)cc23)c1", "GI50": "0.141 µM", "TGI": "2.69 µM"},
      {"compound": "Cc1nnc(S(=O)(=O)c2ccc(N=Nc3c(N)nc(N)nc3N)cc2)s1", "TGI": "> 100 µM"},
      {"compound": "O=c1n(CC2CO2)c(=O)n(CC2CO2)c(=O)n1CC1CO1", "note": "(configuration not stated)", "GI50": "21.1 µM and 6.42 µM", "TGI": "88.6 µM and 118 µM and > 100 µM"},
      {"compound": "Cc1ccc(C(SCC(N)C(=O)O)(c2ccccc2)c2ccc(C)cc2)cc1", "note": "(configuration not stated)", "GI50": "7.96 µM", "TGI": "> 55 µM"},
      {"compound": "COc1cc(Nc2cn[nH]c2-c2ccc(Cl)cc2)cc(OC)c1OC", "GI50": "4.09 µM", "TGI": "28.8 µM"},
      {"compound": "O=C(c1ccccc1)c1cc(Cl)ccc1OCCCCN1CCN(CCCCOc2ccc(Cl)cc2C(=O)c2ccccc2)CC1", "GI50": "3.86 µM", "TGI": "15.1 µM"},
      {"compound": "CNCCNc1c2c(c(NCCNC)c3c(CN(C)C)c[nH]c13)C(=O)c1ccccc1C2=O", "GI50": "3 µM", "TGI": "14.4 µM"},
      {"compound": "Clc1ccc2c(NCCCNc3nccc(Nc4ccc(Br)cc4)n3)ccnc2c1", "GI50": "1.52 µM", "TGI": "3.01 µM"}
    ]}
  ]
}
